# Laboratory results reported in US9409905B2, “Antibacterial compounds and methods for use” (PTC THERAPEUTICS, INC., priority 2011, dated 2016).
# Read-outs that look alike come from different tables or passages of the source.
# Assays:
# [1] = tested on: Pseudomonas aeruginosa (P. aeruginosa) 27853; assay: Antibacterial activity, MIC (Table 5); type: cell-based
# Text: (§1) The antibacterial activity from a microbroth dilution method may be presented as the minimum inhibitory concentration (MIC in μg/mL). The MIC value is the lowest concentration of drug which prevents macroscopically visible growth under test conditions.
# Antibacterial activity of test compounds against the Gram-negative bacterium Pseudomonas aeruginosa (P. aeruginosa) 27853 is shown in Table 5.
# [2] = tested on: E. coli 25922; assay: Antibacterial activity, microbroth dilution MIC (Table 1); type: cell-based, Escherichia coli
# Summary of the method: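 Using broth microdilution, MIC endpoints (μg/mL) mark where visible growth no longer appears; the panel spans sensitive and control Gram-negative strains plus a Gram-positive strain.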
# [3] = tested on: A. baumannii MXX2240; assay: Antibacterial activity, MIC, resistant strain (Table 4); type: cell-based; conditions: Acinetobacter baumannii
# Text: as §1
# (§2) Antibacterial activity of test compounds against the Gram-negative Acinetobacter baumannii (A. baumannii) BAA747 and Klebsiella pneumoniae (K. pneumoniae) 35657 bacterium and the resistant A. baumannii MXX2240 and K. pneumoniae MXX1232 strains are shown in Table 4. The MMX strains are multi-drug resistant clinical isolates.
# [4] = tested on: K. pneumoniae MXX1232; assay: as above; type: cell-based; conditions: Klebsiella pneumoniae
# Text: as §1, §2
# [5] = tested on: Staphylococcus aureus (S. aureus) 29213; assay: Antibacterial activity, microbroth dilution MIC (Table 1); type: cell-based
# Summary of the method: (§3)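 Values are MICs (μg/mL): the smallest drug amount at which macroscopically visible bacterial growth is absent under assay conditions, from a microdilution method in broth.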
# [6] = tested on: Escherichia coli (E. coli) BAS849; assay: as above; type: cell-based
# Summary of the method: as §3
# [7] = tested on: E. coli LZ3111; assay: Antibacterial activity, MIC, quinolone resistant strain (Table 2); type: cell-based; conditions: Escherichia coli, LZ3111, read-out: MIC LZ3111
# Summary of the method: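 Growth inhibition assessed by serial drug dilution in broth; endpoint was absence of macroscopically visible growth, reported as MIC, μg/mL.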
# [8] = tested on: Acinetobacter baumannii (A. baumannii) BAA747; assay: Antibacterial activity, MIC (Table 4); type: cell-based
# Text: as §1, §2
# [9] = tested on: Klebsiella pneumoniae (K. pneumoniae) 35657; assay: Antibacterial activity, MIC (Table 4); type: cell-based
# Text: as §1, §2
# [10] = P. aeruginosa 27853, read-out: MIC, 27853
# [11] = Escherichia coli, microbroth dilution, control Gram-negative E. coli 25922 strain, read-out: MIC, 25922
# [12] = MXX2240, resistant A. baumannii MMX2240, multi-drug resistant clinical isolate, read-out: MIC, MMX2240
# [13] = MXX1232, resistant K. pneumoniae MMX1232, multi-drug resistant clinical isolate, read-out: MIC, MMX1232
# [14] = microbroth dilution, Gram-positive S. aureus 29213, read-out: MIC, 29213
# [15] = microbroth dilution, super sensitive Gram-negative E. coli BAS849, read-out: MIC, BAS849
# [16] = A. baumannii BAA747, read-out: MIC, BAA747
# [17] = K. pneumoniae 35657, read-out: MIC, 35657
Compound,"MIC [1, 10] [µg/mL]","MIC [2, 11] [µg/mL]","MIC [3, 12] [µg/mL]","MIC [4, 13] [µg/mL]","MIC [5, 14] [µg/mL]","MIC [6, 15] [µg/mL]",MIC [7] [µg/mL],"MIC [8, 16] [µg/mL]","MIC [9, 17] [µg/mL]","MIC ([1]; read-out: MIC, 27853) [µg/mL]","MIC ([2]; Escherichia coli, 25922, read-out: MIC, 25922) [µg/mL]","MIC ([3]; MXX2240, read-out: MIC, MMX2240) [µg/mL]","MIC ([4]; MXX1232, read-out: MIC, MMX1232) [µg/mL]","MIC ([5]; read-out: MIC, 29213) [µg/mL]","MIC ([6]; read-out: MIC, BAS849) [µg/mL]","MIC ([8]; BAA747, read-out: MIC, BAA747) [µg/mL]","MIC ([9]; read-out: MIC, 35657) [µg/mL]"
"Cc1c(-c2ccc3c(c2)cc(CNC(C)CO)n3C)[nH]c(=O)c(C(=O)O)c1O (stereo not drawn) [Cpd 349, 4-hydroxy-6-(2-((1-hydroxypropan-2-ylamino)methyl)-1-methyl-1H-indol-5-yl)-5-methyl-2-oxo-1,2-dihydropyridine-3-carboxylic acid]",12.5 to 150,12.5 to 150,12.5 to 150,12.5 to 150,12.5 to 150,1 to 3.5,3.5 to 12.5,12.5 to 150,3.5 to 12.5,–,–,–,–,–,–,–,–
"Cc1c(-c2ccc3[nH]ccc3c2)[nH]c(=O)c(C(=O)O)c1O [Cpd 426, 4-hydroxy-6-(1H-indol-5-yl)-5-methyl-2-oxo-1,2-dihydropyridine-3-carboxylic acid]",12.5 to 150,12.5 to 150,< 1,12.5 to 150,12.5 to 150,3.5 to 12.5,< 1,12.5 to 150,12.5 to 150,–,–,–,–,–,–,–,–
"CCc1cc(C(=O)O)c(=O)[nH]c1-c1ccc2ncnn2c1.Cl [Cpd 49, 6-([1,2,4]triazolo[1,5-a]pyridin-6-yl)-5-ethyl-2-oxo-1,2-dihydropyridine-3-carboxylic acid hydrochloride]",12.5 to 150,12.5 to 150,12.5 to 150,12.5 to 150,12.5 to 150,12.5 to 150,12.5 to 150,12.5 to 150,12.5 to 150,–,–,–,–,–,–,–,–
"CCc1c(-c2ccc3c(ccn3-c3ccc(N4CCCC4)cc3)c2)[nH]c(=O)c(C(=O)O)c1O [Cpd 440, 5-ethyl-4-hydroxy-2-oxo-6-(1-(4-(pyrrolidin-1-yl)phenyl)-1H-indol-5-yl)-1,2-dihydropyridine-3-carboxylic acid]",12.5 to 150,12.5 to 150,12.5 to 150,12.5 to 150,12.5 to 150,12.5 to 150,12.5 to 150,12.5 to 150,12.5 to 150,–,–,–,–,–,–,–,–
"CCc1c(-c2ccc3cc(CNC(C)CC)[nH]c3c2)[nH]c(=O)c(C(=O)O)c1O.Cl (stereo not drawn) [Cpd 443, 6-(2-((sec-butylamino)methyl)-1H-indol-6-yl)-5-ethyl-4-hydroxy-2-oxo-1,2-dihydropyridine-3-carboxylic acid hydrochloride]",12.5 to 150,3.5 to 12.5,3.5 to 12.5,12.5 to 150,3.5 to 12.5,1 to 3.5,3.5 to 12.5,12.5 to 150,3.5 to 12.5,–,–,–,–,–,–,–,–
"CCc1c(-c2ccc3c4c([nH]c3c2)CN(C)CC4)[nH]c(=O)c(C(=O)O)c1O [Cpd 446, 5-ethyl-4-(hydroxy)-6-(2-methyl-2,3,4,9-tetrahydro-1H-pyrido[3,4-b]indol-7-yl)-2-oxo-1,2-dihydropyridine-3-carboxylic acid]",–,–,–,–,–,–,1 to 3.5,–,–,3.5 to 12.5,1 to 3.5,12.5 to 150,12.5 to 150,12.5 to 150,< 1,3.5 to 12.5,< 1
"CCc1c(-c2ccc3cnn(C)c3c2)[nH]c(=O)c(C(=O)O)c1O [Cpd 390, 5-ethyl-4-hydroxy-6-(1-methyl-1H-indazol-6-yl)-2-oxo-1,2-dihydropyridine-3-carboxylic acid]",12.5 to 150,12.5 to 150,3.5 to 12.5,12.5 to 150,12.5 to 150,12.5 to 150,3.5 to 12.5,12.5 to 150,12.5 to 150,–,–,–,–,–,–,–,–
"CCCN(C)C1Cc2cc3cc(-c4[nH]c(=O)c(C(=O)O)c(O)c4CC)ccc3n2C1 (stereo not drawn) [Cpd 420, 5-ethyl-4-hydroxy-6-(2-(methyl(propyl)amino)-2,3-dihydro-1H-pyrrolo[1,2-a]indol-7-yl)-2-oxo-1,2-dihydropyridine-3-carboxylic acid]",12.5 to 150,3.5 to 12.5,3.5 to 12.5,12.5 to 150,3.5 to 12.5,< 1,3.5 to 12.5,12.5 to 150,12.5 to 150,–,–,–,–,–,–,–,–
"CCN(CC)Cc1cc2cc(-c3[nH]c(=O)c(C(=O)O)c(O)c3C)ccc2n1C [Cpd 357, 6-(2-((diethylamino)methyl)-1-methyl-1H-indol-5-yl)-4-hydroxy-5-methyl-2-oxo-1,2-dihydropyridine-3-carboxylic acid]",12.5 to 150,3.5 to 12.5,3.5 to 12.5,12.5 to 150,12.5 to 150,< 1,1 to 3.5,3.5 to 12.5,3.5 to 12.5,–,–,–,–,–,–,–,–
